53 molecules from patent US7429660B2, “ATM inhibitors” (Kudos Pharmaceuticals Limited, priority 2003, dated 2008) can be followed below.

Each structure is given as a SMILES string. pIC50: −log10 of the molar value.

T1 sequence (Q13315 whole entry): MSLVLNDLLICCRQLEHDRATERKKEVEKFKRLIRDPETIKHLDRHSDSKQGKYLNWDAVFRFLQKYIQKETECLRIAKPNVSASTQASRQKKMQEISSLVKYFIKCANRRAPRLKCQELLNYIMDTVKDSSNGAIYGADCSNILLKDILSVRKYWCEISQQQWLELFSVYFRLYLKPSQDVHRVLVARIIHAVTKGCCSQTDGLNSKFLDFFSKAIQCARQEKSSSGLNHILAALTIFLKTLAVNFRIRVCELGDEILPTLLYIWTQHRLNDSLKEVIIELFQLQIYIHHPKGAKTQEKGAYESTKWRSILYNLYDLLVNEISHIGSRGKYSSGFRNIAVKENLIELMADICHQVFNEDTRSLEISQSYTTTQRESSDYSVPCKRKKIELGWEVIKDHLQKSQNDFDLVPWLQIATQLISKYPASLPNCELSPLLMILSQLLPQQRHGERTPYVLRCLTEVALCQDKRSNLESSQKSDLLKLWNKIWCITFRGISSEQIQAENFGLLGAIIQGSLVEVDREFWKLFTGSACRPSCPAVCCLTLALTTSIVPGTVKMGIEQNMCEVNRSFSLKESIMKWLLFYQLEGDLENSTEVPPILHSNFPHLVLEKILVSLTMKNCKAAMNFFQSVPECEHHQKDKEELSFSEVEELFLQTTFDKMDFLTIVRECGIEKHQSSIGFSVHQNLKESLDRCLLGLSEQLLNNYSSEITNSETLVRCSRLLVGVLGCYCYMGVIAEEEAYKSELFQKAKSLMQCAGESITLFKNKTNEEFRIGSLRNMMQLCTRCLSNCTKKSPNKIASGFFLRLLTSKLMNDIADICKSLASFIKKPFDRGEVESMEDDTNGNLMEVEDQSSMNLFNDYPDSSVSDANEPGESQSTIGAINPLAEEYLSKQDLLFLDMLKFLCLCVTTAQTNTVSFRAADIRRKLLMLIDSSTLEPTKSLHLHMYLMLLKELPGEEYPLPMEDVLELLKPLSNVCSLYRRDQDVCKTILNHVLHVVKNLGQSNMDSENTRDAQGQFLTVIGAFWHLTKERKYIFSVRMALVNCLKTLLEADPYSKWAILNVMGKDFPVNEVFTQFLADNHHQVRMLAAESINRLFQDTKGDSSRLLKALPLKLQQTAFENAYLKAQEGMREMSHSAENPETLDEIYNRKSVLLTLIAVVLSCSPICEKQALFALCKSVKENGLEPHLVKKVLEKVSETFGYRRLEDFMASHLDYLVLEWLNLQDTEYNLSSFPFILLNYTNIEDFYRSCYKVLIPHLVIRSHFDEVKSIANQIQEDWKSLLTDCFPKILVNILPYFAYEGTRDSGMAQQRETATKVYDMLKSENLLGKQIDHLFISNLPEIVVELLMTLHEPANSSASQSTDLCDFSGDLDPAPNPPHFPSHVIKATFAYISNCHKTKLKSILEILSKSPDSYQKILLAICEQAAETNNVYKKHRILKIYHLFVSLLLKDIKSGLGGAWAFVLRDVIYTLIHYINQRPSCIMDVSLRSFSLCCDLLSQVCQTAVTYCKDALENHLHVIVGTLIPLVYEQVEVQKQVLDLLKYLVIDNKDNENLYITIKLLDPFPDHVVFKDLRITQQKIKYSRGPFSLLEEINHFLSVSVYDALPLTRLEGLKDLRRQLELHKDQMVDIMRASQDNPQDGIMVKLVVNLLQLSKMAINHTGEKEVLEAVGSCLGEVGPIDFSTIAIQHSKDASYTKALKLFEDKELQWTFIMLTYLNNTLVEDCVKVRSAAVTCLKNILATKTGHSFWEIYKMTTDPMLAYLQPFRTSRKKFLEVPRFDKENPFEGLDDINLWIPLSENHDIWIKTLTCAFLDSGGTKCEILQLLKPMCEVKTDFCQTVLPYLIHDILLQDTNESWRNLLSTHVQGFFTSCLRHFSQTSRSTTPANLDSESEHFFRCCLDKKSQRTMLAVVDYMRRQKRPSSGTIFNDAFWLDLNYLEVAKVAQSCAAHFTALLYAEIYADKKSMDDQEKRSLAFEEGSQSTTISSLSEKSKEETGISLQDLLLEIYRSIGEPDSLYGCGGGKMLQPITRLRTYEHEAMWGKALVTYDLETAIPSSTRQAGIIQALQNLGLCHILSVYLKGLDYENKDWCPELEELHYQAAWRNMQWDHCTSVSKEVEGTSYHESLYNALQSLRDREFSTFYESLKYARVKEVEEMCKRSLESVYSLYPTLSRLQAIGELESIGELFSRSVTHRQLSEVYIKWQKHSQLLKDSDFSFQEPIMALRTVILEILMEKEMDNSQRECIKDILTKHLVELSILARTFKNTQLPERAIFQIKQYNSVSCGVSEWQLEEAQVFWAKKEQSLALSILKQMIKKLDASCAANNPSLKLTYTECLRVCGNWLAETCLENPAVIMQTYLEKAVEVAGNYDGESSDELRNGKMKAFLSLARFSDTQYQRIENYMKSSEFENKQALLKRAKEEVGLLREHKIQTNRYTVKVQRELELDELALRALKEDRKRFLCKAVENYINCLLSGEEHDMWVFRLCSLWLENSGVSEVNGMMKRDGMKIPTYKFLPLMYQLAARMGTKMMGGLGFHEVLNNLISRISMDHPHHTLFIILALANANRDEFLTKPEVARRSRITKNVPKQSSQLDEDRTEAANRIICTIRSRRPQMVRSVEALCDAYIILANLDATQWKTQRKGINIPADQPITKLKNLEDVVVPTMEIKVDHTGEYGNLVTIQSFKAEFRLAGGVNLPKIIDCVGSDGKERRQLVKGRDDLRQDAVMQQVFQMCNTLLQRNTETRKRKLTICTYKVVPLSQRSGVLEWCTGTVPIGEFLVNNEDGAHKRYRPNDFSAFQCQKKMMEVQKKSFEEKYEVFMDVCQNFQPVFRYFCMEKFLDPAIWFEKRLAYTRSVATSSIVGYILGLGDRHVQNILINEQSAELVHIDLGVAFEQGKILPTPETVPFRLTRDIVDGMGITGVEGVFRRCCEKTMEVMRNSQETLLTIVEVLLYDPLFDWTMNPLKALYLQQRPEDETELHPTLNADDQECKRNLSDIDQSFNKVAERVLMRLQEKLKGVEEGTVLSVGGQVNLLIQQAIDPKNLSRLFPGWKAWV

This assay concerns the target T1, ATM protein immunoprecipitated from HeLa cell nuclear extract (Homo sapiens, UniProt Q13315).
T1 construct: ATM protein was immunoprecipitated from HeLa cell nuclear extract; endogenous in cells; host or cells: HeLa cell nuclear extract (immunoprecipitated with rabbit polyclonal anti-ATM antiserum)
Nature of the assay: In vitro ATM inhibition assay (phosphorylation of GSTp53N66 on serine 15, chemiluminescent detection). Also: tested normally from 100 µM down to 0.1 nM. As to conditions: read-out: IC50 values (the concentration at which 50% of the enzyme activity is inhibited), ATM inhibition. Type of assay: biochemical. As to the method:
In order to assess the inhibitory action of the compounds against ATM in vitro, the following assay was used to determine IC50 values. ATM protein was immunoprecipitated from HeLa cell nuclear extract using rabbit polyclonal anti-sera raised to the C-terminal ˜500 amino-acid residues of the human ATM protein. […] 10 μl of immunoprecipitated ATM in Buffer C (50 mM Hepes, pH 7.4, 6 mM MgCl2, 150 mM NaCl, 0.1 mM sodium orthovanadate, 4 mM MnCl2, 0.1 mM dithiothreitol, 10% glycerol) was added to 32.5 μl of buffer C containing 1 μg of the ATM substrate GSTp53N66 in a V-bottomed 96 well polypropylene plate. The GSTp53N66 substrate is the amino terminal 66 amino acid residues of human wild type p53 fused to glutathione S-transferase. […] Varying concentrations of inhibitor were then added. […] After 10 minutes of incubation at 37° C., the reactions were initiated by the addition of 5 μl of 500 μM Na-ATP. After 1 hour with shaking at 37° C., 150 μl of phosphate buffered saline (PBS) was added to the reaction and the plate centrifuged at 1500 rpm for 10 minutes. 5 μl of the reaction was then transferred to a 96 well opaque white plate containing 45 μl of PBS to allow the GSTp53N66 substrate to bind to the plate wells. The plate was covered and incubated at room temperature for 1 hour with shaking before discarding the contents. The plate wells were washed twice by the addition of PBS prior to the addition of 3% (w/v) bovine serum albumin (BSA) in PBS. The plate was incubated at room temperature for 1 hour with shaking before discarding the contents and washing twice with PBS. To the wells, 50 μl of a 1:10,000 dilution of primary phosphoserine-15 antibody (Cell Signaling Technology, #9284L) in 3% BSA/PBS was added to detect the phosphorylation event on the serine 15 residue of p53 elicited by the ATM kinase. […] The wells were then washed four times with PBS before the addition of chemiluminescence reagent (NEN Renaissance, NEL105). The plate was then shaken briefly, covered with a transparent plate seal and transferred to a TopCount NXT for chemiluminescent counting. Counts per second, following a one second counting time, were recorded for each reaction.
The enzyme activity for each compound is then calculated using the following equation:
[formula] Results In vitro ATM assays
Compounds were assayed for ATM inhibition activity using the method described above. […] These are determined over a range of different concentrations, normally from 100 μM down to 0.1 nM. Such IC50 values are used as comparative values to identify increased compound potencies.
In the case of `NC(=O)C1CCN(C(=O)COc2ccc3c(c2)Sc2cccc(-c4cc(=O)cc(N5CCOCC5)o4)c2S3)CC1` [Compound 416], the pIC50 is greater than 6.70.
With `O=c1cc(-c2cccc3c2Sc2ccccc2N3CCCN2CCN(CCOCCO)CC2)oc(N2CCOCC2)c1` [Compound 292] the figure was greater than 6.70.
With `CCN(CC(=O)Nc1ccc2c(c1)Sc1cccc(-c3cc(=O)cc(N4CCOCC4)o3)c1S2)Cc1ccncc1` [Compound 72] the figure was greater than 6.70; with `CN(C)CCN1CCN(CC(=O)Nc2ccc3c(c2)Sc2cccc(-c4cc(=O)cc(N5CCOCC5)o4)c2S3)CC1` [Compound 86], greater than 6.70.
Take `CC(C)NC(=O)CN1CCN(CC(=O)Nc2ccc3c(c2)Cc2cccc(-c4cc(=O)cc(N5CCOCC5)o4)c2S3)CC1` [Compound 346]: the pIC50 was greater than 6.70.
For the molecule `O=c1cc(-c2cccc3c2Sc2ccccc2N3CCCN2CCN(c3ncccn3)CC2)oc(N2CCOCC2)c1` [Compound 295], the pIC50 is greater than 6.70.
In the case of `CC(=O)OC(C(=O)Nc1ccc2c(c1)Sc1cccc(-c3cc(=O)cc(N4CCOCC4)o3)c1S2)c1ccccc1` (centres unmarked) [Compound 43], the pIC50 was greater than 6.70.
As to `CN(C)CCC(=O)Nc1ccc2c(c1)Sc1cccc(-c3cc(=O)cc(N4CCOCC4)o3)c1S2` [Compound 108], the pIC50 is greater than 6.70.
Consider `CCCCNS(=O)(=O)c1ccc2c(c1)Cc1cccc(-c3cc(=O)cc(N4CCOCC4)o3)c1S2` [Compound 457], for which the pIC50 was greater than 6.70.
On to `CN(C)CCN(CCCN1c2ccccc2Sc2c(-c3cc(=O)cc(N4CCOCC4)o3)cccc21)Cc1ccccc1` [Compound 281], for which the pIC50 is greater than 6.70.
Take `CCN1CCN(CC(=O)Nc2ccc3c(c2)Cc2cccc(-c4cc(=O)cc(N5CCOCC5)o4)c2S3)CC1` [Compound 342]: the pIC50 was greater than 6.70.
In the case of `O=c1cc(-c2cccc3c2Sc2ccccc2N3CCCNC2CCCC2)oc(N2CCOCC2)c1` [Compound 254] it was greater than 6.70; in that of `CN(C)CCN(C)C(=O)COc1ccc2c(c1)Sc1cccc(-c3cc(=O)cc(N4CCOCC4)o3)c1S2` [Compound 434], greater than 6.70.
In the case of `CN1CCN(CCC(=O)Nc2ccc3c(c2)Sc2cccc(-c4cc(=O)cc(N5CCOCC5)o4)c2S3)CC1` [Compound 94] it was greater than 6.70; in that of `NCCNCCC(=O)Nc1ccc2c(c1)Sc1cccc(-c3cc(=O)cc(N4CCOCC4)o3)c1S2` [Compound 97], greater than 6.70; in that of `CCN1CCN(C(=O)COc2ccc3c(c2)Sc2cccc(-c4cc(=O)cc(N5CCOCC5)o4)c2S3)CC1` [Compound 438], greater than 6.70.
In the case of `O=C(COc1ccc2c(c1)Sc1cccc(-c3cc(=O)cc(N4CCOCC4)o3)c1S2)N1CCCCC1` [Compound 440] it was greater than 6.70; in that of `O=C(CCNCc1ccncc1)Nc1ccc2c(c1)Sc1cccc(-c3cc(=O)cc(N4CCOCC4)o3)c1S2` [Compound 110], greater than 6.70; in that of `CC1(C)OCC(CNCCCN2c3ccccc3Sc3c(-c4cc(=O)cc(N5CCOCC5)o4)cccc32)O1` (centres unmarked) [Compound 321], greater than 6.70.
Take `NCCNCC(=O)Nc1ccc2c(c1)Sc1cccc(-c3cc(=O)cc(N4CCOCC4)o3)c1S2` [Compound 58]: the pIC50 was greater than 6.70.
As for `CC(=O)Oc1ccccc1C(=O)Nc1ccc2c(c1)Sc1cccc(-c3cc(=O)cc(N4CCOCC4)o3)c1S2` [Compound 39], the pIC50 was greater than 6.70.
In the case of `Cc1ccc(N2CCN(CCCN3c4ccccc4Sc4c(-c5cc(=O)cc(N6CCOCC6)o5)cccc43)CC2)c(C)c1` [Compound 294] it was greater than 6.70; in that of `COCCN1CCN(CC(=O)Nc2ccc3c(c2)Sc2cccc(-c4cc(=O)cc(N5CCOCC5)o4)c2S3)CC1` [Compound 78], greater than 6.70; in that of `O=c1cc(-c2cccc3c2Sc2ccccc2N3CCCNCc2ccccn2)oc(N2CCOCC2)c1` [Compound 266], greater than 6.70.
As to `O=C(COc1ccc2c(c1)Sc1cccc(-c3cc(=O)cc(N4CCOCC4)o3)c1S2)N1CCN(CCO)CC1` [Compound 436], the pIC50 was greater than 6.70.
With `CN1CCN(C(=O)c2ccc3c(c2)Sc2cccc(-c4cc(=O)cc(N5CCOCC5)o4)c2S3)CC1` [Compound 6] the figure was greater than 6.70; with `O=c1cc(-c2cccc3c2Sc2ccc(S(=O)(=O)NCCO)cc2C3)oc(N2CCOCC2)c1` [Compound 484], greater than 6.70; with `O=C(c1ccc2c(c1)Sc1cccc(-c3cc(=O)cc(N4CCOCC4)o3)c1S2)N1CCN(c2ccccc2F)CC1` [Compound 15], greater than 6.70.
In the case of `CCCNS(=O)(=O)c1ccc2c(c1)Cc1cccc(-c3cc(=O)cc(N4CCOCC4)o3)c1S2` [Compound 458], the pIC50 was greater than 6.70.
`O=c1cc(-c2cccc3c2Sc2ccc(OCCNCc4ccncc4)cc2S3)oc(N2CCOCC2)c1` [Compound 366]: the pIC50 is greater than 6.70.
In the case of `O=C(COc1ccc2c(c1)Sc1cccc(-c3cc(=O)cc(N4CCOCC4)o3)c1S2)N1CCSCC1` [Compound 417] it was greater than 6.70; in that of `O=c1cc(-c2cccc3c2Sc2ccccc2N3CCCN2CCN(c3ccncc3)CC2)oc(N2CCOCC2)c1` [Compound 291], greater than 6.70.
As for `COCCN(CCOC)CC(=O)Nc1ccc2c(c1)Sc1cccc(-c3cc(=O)cc(N4CCOCC4)o3)c1S2` [Compound 56], the pIC50 is greater than 6.70.
For the molecule `O=c1cc(-c2cccc3c2Sc2ccccc2N3CCCN2CCNCC2)oc(N2CCOCC2)c1` [Compound 303], the pIC50 was greater than 6.70.
With `CC(C)N1CCN(CCC(=O)Nc2ccc3c(c2)Cc2cccc(-c4cc(=O)cc(N5CCOCC5)o4)c2S3)CC1` [Compound 351] the figure was greater than 6.70.
As for `CC(C)NC(=O)CN1CCN(CCCN2c3ccccc3Sc3c(-c4cc(=O)cc(N5CCOCC5)o4)cccc32)CC1` [Compound 296], the pIC50 was greater than 6.70.
In the case of `O=c1cc(-c2cccc3c2Sc2ccccc2N3CCCNCCN2CCCC2)oc(N2CCOCC2)c1` [Compound 264], the pIC50 was greater than 6.70.
Turning to `CN1CCCC1CCNCCC(=O)Nc1ccc2c(c1)Sc1cccc(-c3cc(=O)cc(N4CCOCC4)o3)c1S2` (centres unmarked) [Compound 114], the pIC50 was greater than 6.70.
In the case of `O=C(CCN1CCN(CCO)CC1)Nc1ccc2c(c1)Sc1cccc(-c3cc(=O)cc(N4CCOCC4)o3)c1S2` [Compound 128] it was greater than 6.70.
Regarding `O=c1cc(-c2cccc3c2Sc2ccccc2N3CCCNC2CCC(O)CC2)oc(N2CCOCC2)c1` (centres unmarked) [Compound 306], the pIC50 is greater than 6.70.
In the case of `O=C(COc1ccc2c(c1)Sc1cccc(-c3cc(=O)cc(N4CCOCC4)o3)c1S2)N1CCN(c2ccccn2)CC1` [Compound 426] it was greater than 6.70; in that of `CN(C)CC(=O)Nc1ccc2c(c1)Sc1cccc(-c3cc(=O)cc(N4CCOCC4)o3)c1S2` [Compound 69], greater than 6.70.
With `O=c1cc(-c2cccc3c2Sc2ccccc2N3CCCNCC2CCCCCC2O)oc(N2CCOCC2)c1` (centres unmarked) [Compound 326] the figure was greater than 6.70; with `CCN1CCN(S(=O)(=O)c2ccc3c(c2)Cc2cccc(-c4cc(=O)cc(N5CCOCC5)o4)c2S3)CC1` [Compound 482], greater than 6.70; with `CC(=O)OCC(=O)Nc1ccc2c(c1)Sc1cccc(-c3cc(=O)cc(N4CCOCC4)o3)c1S2` [Compound 42], greater than 6.70.
With `O=C(CCN1CCN(CCOCCO)CC1)Nc1ccc2c(c1)Sc1cccc(-c3cc(=O)cc(N4CCOCC4)o3)c1S2` [Compound 117] the figure was greater than 6.70; with `CSCCNC(=O)COc1ccc2c(c1)Cc1cccc(-c3cc(=O)cc(N4CCOCC4)o3)c1S2` [Compound 500], greater than 6.70.
With `CC(C)(C)OC(=O)N1CCN(CCCN2c3ccccc3Sc3c(-c4cc(=O)cc(N5CCOCC5)o4)cccc32)CC1` [Compound 298], the pIC50 was greater than 6.70.
For the molecule `N#CCNC(=O)COc1ccc2c(c1)Sc1cccc(-c3cc(=O)cc(N4CCOCC4)o3)c1S2` [Compound 409], the pIC50 is greater than 6.70.
On to `O=C(CCN1CCN(c2ncccn2)CC1)Nc1ccc2c(c1)Cc1cccc(-c3cc(=O)cc(N4CCOCC4)o3)c1S2` [Compound 355], for which the pIC50 was greater than 6.70.
In the case of `O=c1cc(-c2ccc(OCCNCCN3CCN(Cc4ccccc4)CC3)c3c2Sc2ccccc2S3)oc(N2CCOCC2)c1` [Compound 164] it was greater than 6.70; in that of `CN1CCN(CCCNCCCN2c3ccccc3Sc3c(-c4cc(=O)cc(N5CCOCC5)o4)cccc32)CC1` [Compound 270], greater than 6.70.
Take `Cc1ccccc1N1CCN(CCCN2c3ccccc3Sc3c(-c4cc(=O)cc(N5CCOCC5)o4)cccc32)CC1` [Compound 289]: the pIC50 is greater than 6.70.
